# Test results as given in article PMC4725915, “Ruthenium(II) Complexes with 2-Phenylimidazo[4,5-f][1,10]phenanthroline Derivatives that Strongly Combat Cisplatin-Resistant Tumor Cells” (Scientific Reports, 2016).
# Legend:
# [1] = test system: HeLa; test: MTT cytotoxicity assay, HeLa; type: cell-based, human; conditions: 48 h, mean ± SD of three experiments
# Procedure: (§1) Compounds 1–4 were evaluated against three tumor cell lines derived from different tissues, including the cervix (HeLa), lung (A549) and cisplatin-resistant lung (A549R) tissues. For comparison, the cytotoxicity of cisplatin was also evaluated. As a control, the toxicities of the complexes were also tested against the normal human cell line (LO2).
# (§2) The human cervix carcinoma cell line (HeLa), the lung carcinoma cell lines (A549 and A549R), and the human hepatocyte cell line (LO2) were obtained from the Experimental Animal Center at Sun Yat-Sen University (Guangzhou, China). The cells were maintained in Dulbecco’s modified Eagle’s medium (DMEM, Gibco BRL) or Roswell Park Memorial Institute 1640 (RPMI 1640, Gibco BRL) medium supplemented with 10% fetal bovine serum (FBS, Gibco BRL), 100 μg/mL streptomycin, and 100 U/mL penicillin (Gibco BRL) in a humidified incubator under 5% CO2 and 20% O2 at 37 °C. To maintain the resistant phenotype, A549R cells were incubated with 5 μM cisplatin and cultured in drug-free medium for at least a week before use.
# (§3) The cytotoxicity of the ruthenium complexes and cisplatin were determined by an MTT assay. Briefly, cells were seeded into 96-well microtiter plates at 1 × 10^4 cells per well and grown overnight at 37 °C in a 5% CO2 incubator; then, different concentrations of the complexes in cell culture medium were added to the cultures. The plates were then incubated in an incubator for 48 h under the same conditions. The stock MTT dye solution (15 μL, 5 mg/mL) was added to each well. After 4 h of incubation, the cultures were removed and 150 μL of DMSO was added to each well. The optical density of each well was measured on a microplate spectrophotometer at a wavelength of 595 nm.
# [2] = test system: A549; test: MTT cytotoxicity assay, A549; type: cell-based, human; conditions: A549, 48 h, mean ± SD of three experiments
# Procedure: as §1, §2, §3
# [3] = test system: A549R; test: MTT cytotoxicity assay, cisplatin-resistant A549R; type: cell-based, human; conditions: 48 h, mean ± SD of three experiments
# Procedure: as §1, §2, §3
# [4] = test system: LO2; test: MTT cytotoxicity assay, normal LO2 cells; type: cell-based; conditions: LO2 normal human cell line, 48 h
# Procedure: as §1, §2, §3
# [5] = test system: A549R MCTSs; test: Cytotoxicity test on 3D MCTSs (Cell TiterGlo ATP); type: cell-based, human; conditions: A549R MCTSs (~400 μm in diameter), 48 h
# Procedure: (§4) MCTSs were cultured using the liquid overlay method. A549R cells in the exponential growth phase were dissociated by a trypsin/EDTA solution to gain single-cell suspensions. A number of 3000 diluted A549R cells were transferred to 1.5% agarose-coated transparent 96-well plates with 200 μL of DMEM containing 10% serum. The single cells formed MCTS aggregates approximately 400 μm in diameter after three days with 5% CO2 and 20% O2 at 37 °C. After formation of the MCTSs, each MCTS in a 96-well plate was imaged with a phase contrast microscope (Zeiss Axio Observer D1, Germany) using 10× objective to monitor their color, integrity, diameter, and volume.
# A549R MCTSs (diameters ≈400 μm) were treated by carefully replacing 50% of the medium with drug-supplemented standard medium using an eight-channel pipet. In parallel, 50% of the medium containing solvent was replaced with solvent-free medium for the untreated MCTSs. Three A549R MCTSs were treated per condition and drug concentration; the DMSO volume was less than 1% (v/v). The MCTSs were then allowed to incubate for another 48 h. The cytotoxicities of the Ru(II) complexes toward the MCTSs were measured using ATP concentrations with a Cell TiterGlo kit (Promega). After 30 min of incubation, the MCTSs were carefully transferred into black-sided, flat-bottomed 96-well plates (Corning) and mixed with a pipet for luminescence measurements on an Infinite M200 PRO instrument (TECAN).
# [6] = test system: cancer cell lines (HeLa, A549, A549R); test: MTT cytotoxicity, all tested cancer cell lines taken together; type: cell-based, human; conditions: 48 h, read-out: IC50 toward all the tested cancer cell lines
# Procedure: as §1, §3
# [7] = Distribution coefficient (log Po/w), flask-shaking, n-octanol/phosphate buffer; type: physicochemical; conditions: n-octanol / phosphate buffer pH 7.4, 37 °C; in words only (Figure S8)
# Procedure: Distribution coefficients (log Po/w) were determined by liquid-liquid extraction between n-octanol (oil) and phosphate buffers (0.2 M, pH 7.4) with the flask-shaking method. N-Octanol and the buffer were mutually saturated with each other for at least 24 h before use. An aliquot of a ruthenium complex stock solution was added to the phosphate buffer concentrations at <10 mg/mL, and the mixture was shaken at 100 rpm for 24 h at 37 °C to allow for adequate partitioning. After the sample was centrifuged at 3000 rpm for 20 min, the aqueous layer was used for ruthenium analysis, and the Ru content in the aqueous layer was measured by ICP-MS and used to calculate the log Po/w.
# [8] = test system: A549R cells; test: Cell uptake study by ICP-MS; type: cell-based, human; conditions: 2.0 μM, 12 h
# Procedure: (§5) To understand the high sensitivity of cancer cells to Ru(II) complexes, the extent of cellular uptake was investigated with inductively coupled plasma mass spectrometry (ICP-MS) by treating the HeLa, A549, A549R and LO2 cell lines with 2.0 μM concentrations of the Ru(II) complexes and cisplatin for 12 h. […] In this study, the cellular uptake and lipophilicity were distinctly correlated and followed the order: 4 >3 >2 >1. Complex 4 had the best accumulation, but the amount of Ru in LO2 cells was far less than that in the three cancer lines, indicating selective accumulation and improved efficiency for treating cancer. Cisplatin was taken up more efficiently by the sensitive cell line (A549) than by the cisplatin-resistant cell line (A549R). […] However, less than 1.5% of the cellular platinum was accumulated in the mitochondrial fraction of the A549R cells. Therefore, complex 4 could function in a different manner than cisplatin in A549R cells, which would be an appropriate solution to combat cisplatin resistance in tumor cells.
# The cells were plated at a density of 1 × 10^5 cells/mL in 10 mL of DMEM for 24 h at 37 °C under 5% CO2 and 20% O2, Ruthenium complexes (2.0 μM) and cisplatin were added to the culture medium and incubated for 12 h, and mixed with cold PBS and a trypsin-EDTA solution in a centrifuge tube for counting. Then, the nuclei and cytoplasm of the cells were extracted by using a Nuclear and Cytoplasmic Protein Extraction Kit (Life Technologies). The samples were digested in 20% HNO3 and 10% H2O2 at room temperature overnight. Each sample was then diluted with Milli-Q water to obtain 2% HNO3 sample solutions. Ruthenium contents were determined using inductively coupled plasma mass spectrometry (ICP-MS Thermo Elemental Co., Ltd.).
# [9] = test system: A549R cells; test: Subcellular distribution study by ICP-MS; type: cell-based, human; conditions: 2.0 μM, 12 h
# Procedure: as §5
# A549R cells were plated at a density of 1 × 10^5 cells/mL in 10 mL of DMEM for 24 h at 37 °C under 5% CO2 and 20% O2. […] The ruthenium or platinum contents were determined using inductively coupled plasma mass spectrometry (ICP-MS Thermo Elemental Co., Ltd.).
# [10] = test system: A549R cells; test: Real-time cell growth and proliferation assay (xCELLigence); type: cell-based, human; conditions: 100 μM
# Procedure: In addition, a real-time cell growth and proliferation assay using an xCELLigence System was utilized to confirm the high toxicity of complex 4 on A549R cells. […] In contrast, A549R cells were killed by treatment with complex 4 in a concentration-dependent manner.
# This experiment was performed using an xCELLigence RTCA DP system real time cell analyzer (Roche Diagnostics GmbH, Germany). In brief, 80 μL of cell culture media was added to each well of a 16-well plate (E-plate 16, Roche Diagnostics GmbH, Germany). The 16-well plates were then connected to the system and checked for suitable electrical contacts in the real time cell analyzer, and the background impedance was measured for 24 s. Meanwhile, the A549R cells were suspended in cell culture medium and adjusted to 5 × 10^4 cells/mL, and 100 μL of each cell suspension was added to each well of […]. Approximately 24 h after seeding, the A549R cells were in the logarithmic phase of growth, and a wide range of concentrations of complex 4 and cisplatin (100 μM) were added. The cells were automatically monitored every 15 min over 48 h by the xCELLigence system. Data were analyzed using RTCA software (version 1.2) that was supplied with the instrument.
# [11] = test system: A549R MCTSs; test: Growth inhibition of drug-treated MCTSs (size by imaging); type: cell-based, human; conditions: 100 μM
# Excerpt: Traditional research on the efficacy of cancer drugs is usually performed in two-dimensional (2-D) cell cultures, which may not be a true indicator of the in vivo effectiveness of cancer treatments. This is in part due to the absence of cell-cell or cell-extracellular matrix interactions in 2-D cell models. Therefore, the development of cell culture models that can close the gap between conventional 2-D cell experiments and animal studies is necessary to study the cytotoxicity and anti-proliferative activities of drugs. Multicellular tumor spheroids (MCTSs) are heterogeneous cellular aggregates that have properties of solid tumors, such as nutrient and oxygen gradients, hypoxic/necrotic regions, cell-cell matrix interactions, and gene expression.
# as §4, with “After formation of the MCTSs, each MCTS in a 96-well plate was imaged with a phase contrast microscope (Zeiss Axio Observer D1, Germany) using 10× objective to monitor their color, integrity, diameter, and volume.” left out
Molecule,IC50 [1],IC50 [2],IC50 [3],IC50 [4],IC50 [5],IC50 [6],log Po/w [7],share of the compound taken up by A549R cells ([8]; A549R),platinum level in A549 cells relative to A549R cells ([8]; A549 vs A549R),share of cellular metal accumulated in the mitochondrial fraction [9],effect on A549R cells compared to the control (xCELLigence) [10],change in size of A549R MCTSs [11]
"[Ru+2].c1ccc(-c2nc3c4cccnc4c4ncccc4c3[nH]2)cc1.c1cnc2c(c1)ccc1cccnc12.c1cnc2c(c1)ccc1cccnc12 [Complex 1, [Ru(phen)2(PIP)]^2+]",> 100 µM,> 100 µM,> 100 µM,> 100 µM,> 100 µM,> 100 µM,negative,,,,,
FC(F)(F)c1ccc(-c2nc3c4cccnc4c4ncccc4c3[nH]2)cc1.[Ru+2].c1cnc2c(c1)ccc1cccnc12.c1cnc2c(c1)ccc1cccnc12 [Complex 2],55.4 ± 3.1 µM,43.4 ± 5.3 µM,48.2 ± 2.7 µM,75.8 ± 7.5 µM,95.7 µM,,moderate,,,,,
N.N.[Cl][Pt][Cl] [cisplatin],15.1 ± 2.1 µM,21.3 ± 3.3 µM,142 ± 5.4 µM,18.9 ± 2.6 µM,> 200 µM,,,less than 1%,ca. 4 fold,less than 1.5%,negative effect,increased with time
Ru(phen)2(tbtfpip)(PF6)2 [Complex 3],22.5 ± 3.3 µM,28.6 ± 2.6 µM,32.2 ± 1.5 µM,45.6 ± 3.8 µM,60.6 ± 5.5 µM,,moderate,,,,,
